Values of other authors in patent publication US20090238905A1, “INFLAMMATION REDUCING ACTION OF SYNERGISTIC MIXTURES OF BISABOLOL AND GINGER EXTRACTS” (SYMRISE, Inc., priority 2008, published 2009).

Compound	inhibition of COX-2 expression (COX-2)	inhibition of activation of TNF-α (TNF-α)	inhibition of PGE2 production (HL-60 cells)	IL-1α inhibition (IL-1α)	LTB4 inhibition (LTB4)	PGE2 inhibition (PGE2)
CCCCC[C@H](O)CC(=O)CCc1ccc(O)c(OC)c1 [Gingerol]	inhibit	inhibit activation of TNF-α	inhibit PGE2 production	did not have an effect	–	–
CC(C)=CCC[C@](C)(O)C1CC=C(C)CC1 (stereo partly shown) [Bisabolol, bisabolol]	–	–	–	very effective	very effective	not as a PGE2 inhibitor
